Assay results as given in patent publication US10422803B2, “Light-activated cation channel and uses thereof” (The Board of Trustees of the Leland Stanford Junior …, priority 2005, dated 2019).

System: hippocampal neurons
Assay: Light-driven synaptic transmission from ChR2-expressing presynaptic neurons
Format: cell-based, rat
Experimental: Spiking was measured while injecting current to keep the voltage of the cell at approximately −65 mV (holding current ranging from 0 pA to 200 pA). For the synaptic transmission experiments, we patched nonfluorescent neurons near ChR2-expressing neurons, immersed in Tyrode solution containing either 20 μM gabazine to isolate just the excitatory postsynaptic response, or in 5 μM NBQX to isolate just the inhibitory postsynaptic response. To confirm whether the evoked potentials were indeed synaptically driven, after synaptic stimulation we blocked all postsynaptic receptors with solution containing both 20 μM gabazine and 5 μM NBQX, and rephotostimulated.

## NS(=O)(=O)c1cccc2c1c([N+](=O)[O-])cc1nc(O)c(O)nc12 [NBQX]
Glutamatergic blocker, FIG. 4(c)
  effect on light-driven excitatory synaptic responses: abolishes these synaptic responses

## COc1ccc(-c2ccc(=N)n(CCCC(=O)O)n2)cc1 [gabazine]
GABAergic transmission blocker, FIG. 4(d)
  effect on light-driven inhibitory synaptic responses: abolishes these synaptic responses
